Biological target: T1, SARM1 (Homo sapiens, UniProt Q6SZW1)
T1 construct: made in house; host or cells: NRK1-HEK293T cells, transient transfection; cleared cell lysate used without purification
T1 sequence (Q6SZW1 with tags, fused parts or gaps): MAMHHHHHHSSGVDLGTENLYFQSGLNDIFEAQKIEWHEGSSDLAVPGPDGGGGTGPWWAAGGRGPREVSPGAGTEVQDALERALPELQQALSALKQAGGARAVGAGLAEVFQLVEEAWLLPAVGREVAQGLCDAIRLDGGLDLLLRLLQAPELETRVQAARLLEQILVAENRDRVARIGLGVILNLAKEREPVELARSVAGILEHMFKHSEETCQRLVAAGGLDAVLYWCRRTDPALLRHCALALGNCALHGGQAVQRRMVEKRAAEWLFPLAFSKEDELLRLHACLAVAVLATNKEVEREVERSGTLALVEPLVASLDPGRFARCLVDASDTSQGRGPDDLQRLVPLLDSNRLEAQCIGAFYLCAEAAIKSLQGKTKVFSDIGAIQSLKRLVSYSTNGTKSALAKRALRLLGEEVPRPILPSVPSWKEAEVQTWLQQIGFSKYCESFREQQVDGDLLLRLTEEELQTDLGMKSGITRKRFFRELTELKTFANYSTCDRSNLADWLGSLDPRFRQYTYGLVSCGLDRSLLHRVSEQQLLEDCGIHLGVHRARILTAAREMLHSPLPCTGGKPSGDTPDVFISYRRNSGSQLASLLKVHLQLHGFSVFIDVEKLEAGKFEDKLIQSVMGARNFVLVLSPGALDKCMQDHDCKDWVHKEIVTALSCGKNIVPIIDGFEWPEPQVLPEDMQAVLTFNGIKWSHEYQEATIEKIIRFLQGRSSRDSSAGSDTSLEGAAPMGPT
Assay: ARM-SAM-TIR SARM1 IC50 assay (NADase activity, NAD+ cleavage, RapidFire mass spectrometry)
Format: biochemical
Conditions: ARM-SAM-TIR lysate 5 μg/mL, 2 h pre-incubation with compound at room temperature, 5 μM NAD+, 2 hr incubation
Method: This Example describes an assay of ARM-SAM-TIR NADase activity and use of this assay to measure the efficacy of compounds of Formula I/II to block SARM1 mediated NAD+ cleavage. This assay was optimized in such a way as to characterize the efficacy of the compounds in Formula I/I to inhibit SARM1 activity and to calculate an IC50 value for each compound. This assay makes use of full length SARM1, which encompasses the ARM, SAM and TIR domains. […] NRK1-HEK293T cells were seeded onto 150 cm^2 plates at 20×10^6 cells per plate. The next day, the cells were transfected with […] ARM-SAM-TIR expression plasmid, SEQ ID NO: 1. The cultures were supplemented with 1 mM NR at time of transfection to minimize toxicity from ARM-SAM-TIR overexpression. Forty-eight hours after transfection, cells were harvested, pelleted by centrifugation at 1,000 rpm (Sorvall ST 16R centrifuge, Thermo Fisher), and washed once with cold PBS (0.01 M phosphate buffered saline NaCl 0.138 M; KCl 0.0027 M; pH 7.4). The cells were resuspended in PBS with protease inhibitors (cOmplete™ protease inhibitor cocktail, Roche product #11873580001) and cell lysates were prepared by sonication (Branson Sonifer 450, output=3, 20 episodes of stroke). The lysates were centrifuged (12,000×g for 10 min at 4° C.) to remove cell debris and the supernatants (containing ARM-SAM-TIR protein) were stored at −80° C. for later use in the in vitro ARM-SAM-TIR NADase assay (see below). Protein concentration was determined by the Bicinchoninic (BCA) method and used to normalize lysate concentrations. The enzymatic assay was performed in a 384-well polypropylene plate in Dulbecco's PBS buffer in a final assay volume of 20 μL. […] The reaction was initiated by addition of 5 μM final assay concentration of NAD+ as substrate. After a 2 hr room temperature incubation, the reaction was terminated with 40 μL of stop solution of 7.5% trichloroactetic acid in acetonitrile. The NAD+ and ADPR concentrations were analyzed by a RapidFire High Throughput Mass Spectrometry System (Agilent Technologies, Santa Clara, CA) using an API4000 triple quadrupole mass spectrometer (AB Sciex Framingham, MA).

Row | SMILES | IC50 [µM]
1 | O=C(NCc1ccc(Cl)cc1)c1nccc2c(-c3ccncc3)n[nH]c12 [Example 14] | < 0.1
2 | C[C@@H](NC(=O)c1cccc2c(-c3ccncc3)n[nH]c12)c1ccc(Cl)cc1 [Example 15] | 0.1 to 1
3 | O=C(NCc1ccc(Cl)c(F)c1)c1cccc2c(-c3ccncc3)n[nH]c12 [Example 16] | < 0.1
4 | O=C(NCc1ccc(Cl)s1)c1cccc2c(-c3ccncc3)n[nH]c12 [Example 17] | < 0.1
5 | O=C(NCc1ccc(Cl)cc1)c1cccc2c(-c3cncs3)n[nH]c12 [Example 19] | > 10
6 | Cc1ccc(C(=O)NCc2ccc(Cl)nc2)c2[nH]nc(-c3ccncc3)c12 [Example 24] | 1.01 to 5
7 | Cc1cc(C(=O)NCc2ccc(Cl)nc2)c2[nH]nc(-c3ccncc3)c2c1 [Example 25] | 0.1 to 1

Continued, values first:

Row | IC50 [µM] | SMILES
8 | > 10 | O=C(NCc1ccc(Cl)cc1)c1cccc2c(-c3cnc[nH]3)n[nH]c12 [Example 18]
9 | > 10 | Cn1cncc1-c1n[nH]c2c(C(=O)NCc3ccc(Cl)cc3)cccc12 [Example 20]
10 | > 10 | O=C(NCc1ccc(Cl)cc1)c1cccc2c(-c3cnco3)n[nH]c12 [Example 21]

Source: US12435084B2, “Indazole derivatives as inhibitors of SARM1” (Disarm Therapeutics, Inc., priority 2020, dated 2025)
